In patent US12618847B2 (Purdue Research Foundation, priority 2020, dated 2026):
Where no end group is shown, it is not given here. [ ]: non-standard residue; d: D form. Phe(4-Cl) = N[C@@H](Cc1ccc(Cl)cc1)C(=O)O

What was measured:
[1] = tested on: human purified 20S proteasome; experiment: Detection of small molecule stimulators with TAS probes using purified 20S proteasome (FIG. 7B-7D); type: biochemical; details: detected with TAS1 and TAS3
Procedure: FIG. 7B-7D show the analysis of TAS probes (TAS-1-B, TAS-2-C, TAS-3-D) for their ability to detect different small molecule stimulators using human purified 20S proteasome.
All three probes were able to detect stimulation is determined by an increase in the % activity over 60 min as compared to the DMSO control. Both TAS1 and TAS3 can differentiate between weak (TRC-1 and TCM-1) and strong proteasome stimulators (MK-886).

proteasome = tested on: T1, proteasome; experiment: Proteasome stimulation in cells monitored with TAS probes; type: cell-based
T1 construct: endogenous in cells; host or cells: A549 (inferred; the stimulator paragraph says only 'cells')
Description: In addition to determining if our probes are capable of detecting a decrease in proteasome activity, we were also interested in monitoring molecules which have shown to increase proteasome activity, also known as proteasome stimulators. […] However, this method requires transfection of the MT-fusion protein into cells and analysis by Western blot. Given the promising results with MG-132, we expected our probes to be sensitive enough to detect proteasome stimulation in a similar manner. Using three molecules reported to have various degrees of stimulation, cells were dosed for one hour before washing and adding in each probe. The samples were then monitored for changes in fluorescence and analyzed in the same way as the MG-132 experiment.
Previously proteasome stimulators had been discovered using a biochemical assay that required purified proteasome. As with all enzyme purifications, the batch to batch activity can vary greatly, leading to inconsistent results. […]
Using three different stimulating small molecules previously validated using other methods, we found both TAS1 and TAS3 would be suitable to use in such an assay. […] An increase in proteasome activity can be detected after as little as 15 min of incubation time, which can help to increase throughput during a screening campaign. […]

20S CP = 20S CP (Homo sapiens, UniProt P20618+P28074); experiment: Fluorescence hydrolysis of probes by purified 20S CP (plate reader); type: biochemical; details: 30 μM probe
Procedure: The peptide recognition sequence used was based on the commercially available 4-mer AMC probe (FIG. 1A), specifically Leu-Leu-Val-Tyr (SEQ ID NO: 1), to generate TAS1 (FIG. 1B). To determine if TAS1 had any enhanced sensitivity, the two probes were compared under the same conditions with purified 20S CP. Briefly, the probes were incubated in triplicate at 10 and 30 μM with 9 nM […] at 37° C. The change in fluorescence was monitored for two hours and the endpoint values were averaged and graphed for comparison (FIG. 1C). Because the two fluorophores have different excitation and emission wavelengths, the two experiments were performed separately but using the same conditions for the plate reader (i.e. gain, number of flashes, settling time, etc.). […] Since, unlike Suc-LLVY-AMC (SEQ ID NO: 1), TAS1 has the potential to have more than one cleavage site which could result in an increase in fluorescence (on either side of Rh110), we confirmed that the increase in signal is only from the recognition and cleavage of the peptide at the Tyr moiety by analyzing the 30 μM TAS1 samples by LC/MS (FIG. 2).
With these new peptide sequences in hand, we returned to incorporating the Rh110-peptoid moiety and to compare the cleavage of TAS1-3 with the 20S CP. We incubated all three probes at various concentrations with 9 nM 20S CP and monitored the change in fluorescence using a microplate reader. […] In order to compare the three probes, we fit a linear regression for the points from 10-60 min for 30 μM of each probe to obtain a rate for the change in fluorescence (Table 1). Of the three, TAS1 was hydrolyzed the quickest, although the slope for TAS2 was similar. […] To confirm that the change in fluorescence was due to amide bond cleavage at the expected site on the peptide, we analyzed the samples at a concentration of 30 μM by LC/MS (FIG. 3).

A549 cells = experiment: Probe cleavage in live A549 cells with or without MG-132 pretreatment; type: cell-based; details: 10 μM probe, 5,000 cells/well, 90 min
Procedure: We next sought to determine if the TAS probes would be suitable for cell-based assays. To accomplish this, A549 cells were plated at a density of 5,000 cells/well in a black 96 well plate with a black bottom. After allowing the cells to adhere to the plate, the samples were washed with PBS three times then dosed with 10 μM of each probe in modified KRBH buffer. The change in fluorescence was recorded on a microplate reader for 90 min. After allowing the signal to equilibrate for […], each sample was set to zero and the future time points were scaled accordingly. As was done with the biochemical data, a linear regression was fit to each set of data. From the slope, it is observed that the rate for TAS2 was the highest. To determine the in-cell selectivity, a set of samples pretreated with MG-132 (10 μM), a proteasome inhibitor, was included for each probe. These samples were pre-incubated with MG-132 in cell culture media for one hour before washing with PBS and dosing with each probe in modified KRBH buffer. […] To ensure this decrease was not a consequence of cell death, cells were treated in the same way and analyzed using Cell-Titer Glo.

A498 = experiment: TAS2 rate of hydrolysis in live cells; type: cell-based; details: A498, TAS2 10 μM, 5,000 cells/well
Procedure: (§1) To compare these cells lines, each was plated at the same density of 5,000 cells/well in a black 96 well plate—for adherent cells lines A498, SK-MEL-2, MEL-92.1, SH-SY5Y and HEK293T, the cells were allowed to adhere overnight before using in the assay; MM.1R cells were plated and used directly after. Samples were incubated with either DMSO or TAS2 (10 μM) for 15 min, washed with PBS three times before putting the plate in a microplate reader to record the fluorescence intensity over 90 min. The experiment was performed in technical triplicate and experimental duplicate for each cell line and the rate of hydrolysis of TAS-2 was determined, Table 2.

HEK-293T = experiment: TAS2 rate of hydrolysis in live cells; type: cell-based; details: TAS2 10 μM, 5,000 cells/well
Procedure: as §1

MEL-92.1 = experiment: TAS2 rate of hydrolysis in live cells; type: cell-based; details: MEL-92.1, TAS2 10 μM, 5,000 cells/well
Procedure: as §1

MM.1R = experiment: TAS2 rate of hydrolysis in live cells; type: cell-based; details: TAS2 10 μM, 5,000 cells/well
Procedure: as §1

SH-SY5Y = experiment: TAS2 rate of hydrolysis in live cells; type: cell-based; details: TAS2 10 μM, 5,000 cells/well
Procedure: as §1

SK-MEL-2 = experiment: TAS2 rate of hydrolysis in live cells; type: cell-based; details: SK-MEL-2, TAS2 10 μM, 5,000 cells/well
Procedure: as §1

Molecule	Proteasome stimulator strength (% activity over 60 min vs DMSO) [1]	Increase in proteasome activity vs DMSO (proteasome; probe TAS1, cells dosed one hour)	Increase in proteasome activity vs DMSO (proteasome; probe TAS3, cells dosed one hour)	Rate of Hydrolysis (20S CP; 9 nM purified 20S CP, linear regression 10-60 min)	Cleavage products after incubation with 20S CP (LC/MS) (20S CP; LC/MS)	Rate of probe cleavage in A549 cells (slope) (A549 cells)	Rate of Hydrolysis (A498)	Rate of Hydrolysis (HEK-293T)	Rate of Hydrolysis (MEL-92.1)	Rate of Hydrolysis (MM.1R)	Rate of Hydrolysis (SH-SY5Y)	Rate of Hydrolysis (SK-MEL-2)
CC(C)c1ccc2c(c1)c(SC(C)(C)C)c(CC(C)(C)C(=O)O)n2Cc1ccc(Cl)cc1 [MK-886]	strong	greater than 3 fold	greater than 3 fold	–	–	–	–	–	–	–	–	–
TAS2: Rh110-based peptide/peptoid hybrid probe with Phe(4-Cl) as Tyr substitute (LLV[Phe(4-Cl)]; also: Rh110-based probe, place not given here, peptide/peptoid hybrid)	–	–	–	63.8 ΔRFU/min	only produced the expected cleavage products	highest	39.6 ± 4.8 ΔRFU/min	6.7 ± 3.2 ΔRFU/min	16.4 ± 2.6 ΔRFU/min	81.6 ± 25.5 ΔRFU/min	5.8 ± 0.4 ΔRFU/min	12.1 ± 1.3 ΔRFU/min
